Test results taken from ChEMBL document CHEMBL1201862, “PubChem BioAssay data set” (2004).
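Test compounds were applied to cells in 96-well plates for 48 hours at 5 doses. GI50 = concentration required for 50% inhibition of growth.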 Active and inactive are the calls of the source. Cut-off read from the data, not from the text of the source: active = GI50 up to about 1.1 µM and inactive = higher.

Assays:
Test in all cases: NCI tumour cell line growth inhibition, 48 h
COLO 205 = test system: COLO 205
OVCAR-4 = test system: OVCAR-4
T47D = test system: T47D
OVCAR-5 = test system: OVCAR-5
NCI-H226 = test system: NCI-H226
SK-OV-3 = test system: SK-OV-3
HCT-116 = test system: HCT-116
NCI-H23 = test system: NCI-H23
SN12C = test system: SN12C
NCI/ADR-RES = test system: NCI/ADR-RES
HOP-62 = test system: HOP-62
MDA-MB-231 = test system: MDA-MB-231
RPMI-8226 = test system: RPMI-8226
EKVX = test system: EKVX
MCF7 = test system: MCF7
NCI-H460 = test system: NCI-H460
A498 = test system: A498
HOP-92 = test system: HOP-92
MDA-MB-435 = test system: MDA-MB-435

Measured: GI50

Cc1ccc(/N=N/c2ccc(N)cc2C)c(S(N)(=O)=O)c1
inactive: COLO 205 76.7 µM | OVCAR-4 > 100 µM | T47D 48.8 µM | OVCAR-5 > 100 µM | NCI-H226 > 100 µM | SK-OV-3 > 100 µM | HCT-116 75.3 µM | NCI-H23 > 100 µM | SN12C > 100 µM | NCI/ADR-RES 76.6 µM | HOP-62 > 100 µM | MDA-MB-231 > 100 µM | RPMI-8226 70.8 µM | EKVX 26.1 µM | MCF7 61.9 µM | NCI-H460 49.3 µM | A498 > 100 µM | HOP-92 32.1 µM

O=C(O)Cc1cc(O)c(CC(=O)O)cc1O
inactive: OVCAR-4 > 100 µM | T47D > 100 µM | OVCAR-5 > 100 µM | NCI-H226 > 100 µM | HCT-116 > 100 µM | MDA-MB-435 > 100 µM | NCI-H23 > 100 µM | SN12C > 100 µM | NCI/ADR-RES > 100 µM | HOP-62 > 100 µM | MDA-MB-231 > 100 µM | EKVX > 100 µM | NCI-H460 > 100 µM | A498 > 100 µM | HOP-92 > 100 µM

Cc1cn(C2CC(N=[N+]=[N-])C(C(=O)O)O2)c(=O)[nH]c1=O (configuration not stated)
inactive: COLO 205 > 100 µM | OVCAR-4 > 100 µM | OVCAR-5 > 100 µM | NCI-H226 > 100 µM | SK-OV-3 > 100 µM | HCT-116 > 100 µM | MDA-MB-435 > 100 µM | NCI-H23 > 100 µM | SN12C > 100 µM | NCI/ADR-RES > 100 µM | HOP-62 > 100 µM | MDA-MB-231 > 100 µM | RPMI-8226 > 100 µM | EKVX > 100 µM | MCF7 > 100 µM | NCI-H460 > 100 µM | A498 > 100 µM | HOP-92 > 100 µM

CC(=O)C12C[C@](C#N)(N3CCCCCC3)C1C=Cc1ccccc12 (some centres not stated)
inactive: COLO 205 > 100 µM | OVCAR-4 > 100 µM | T47D > 100 µM | NCI-H226 > 100 µM | SK-OV-3 > 100 µM | HCT-116 > 100 µM | MDA-MB-435 > 100 µM | NCI-H23 > 100 µM | SN12C > 100 µM | NCI/ADR-RES > 100 µM | HOP-62 > 100 µM | MDA-MB-231 > 100 µM | RPMI-8226 > 100 µM | EKVX > 100 µM | MCF7 > 100 µM | NCI-H460 > 100 µM

c1ccc(/N=C2\SC(c3ccccc3)CN2C23CC4CC(CC(C4)C2)C3)cc1 (configuration not stated)
inactive: COLO 205 > 100 µM | OVCAR-4 > 100 µM | OVCAR-5 > 100 µM | NCI-H226 > 100 µM | HCT-116 > 100 µM | MDA-MB-435 > 100 µM | NCI-H23 > 100 µM | SN12C > 100 µM | NCI/ADR-RES > 100 µM | HOP-62 > 100 µM | MDA-MB-231 > 100 µM | RPMI-8226 > 100 µM | EKVX > 100 µM | MCF7 > 100 µM | NCI-H460 > 100 µM | A498 > 100 µM | HOP-92 > 100 µM

COc1ccc(/C=C2\CN(C)CC3C2=NN(c2ccccc2)C3c2ccc(OC)cc2)cc1 (configuration not stated)
inactive: COLO 205 > 100 µM | OVCAR-4 > 100 µM | T47D > 100 µM | OVCAR-5 > 100 µM | NCI-H226 > 100 µM | SK-OV-3 16.6 µM | HCT-116 > 100 µM | MDA-MB-435 > 100 µM | NCI-H23 > 100 µM | SN12C > 100 µM | NCI/ADR-RES > 100 µM | HOP-62 38 µM | RPMI-8226 > 100 µM | EKVX > 100 µM | MCF7 > 100 µM | NCI-H460 > 100 µM | A498 33.8 µM | HOP-92 28 µM
